Among the data in patent publication US10722501B2 (BAYER AKTIENGESELLSCHAFT, priority 2016, dated 2020) are IC50 values, retold here.

SMILES strings stand for the structures.

The target of this assay is T1, recombinant full-length human prolyl endopeptidase (PREP) (Homo sapiens, UniProt P48147).
T1 construct: To recombinant full-length human prolyl endopeptidase (PREP, R&D-Systems, 4308-SE); purchased R&D-Systems 4308-SE
T1 sequence (P48147 1-710): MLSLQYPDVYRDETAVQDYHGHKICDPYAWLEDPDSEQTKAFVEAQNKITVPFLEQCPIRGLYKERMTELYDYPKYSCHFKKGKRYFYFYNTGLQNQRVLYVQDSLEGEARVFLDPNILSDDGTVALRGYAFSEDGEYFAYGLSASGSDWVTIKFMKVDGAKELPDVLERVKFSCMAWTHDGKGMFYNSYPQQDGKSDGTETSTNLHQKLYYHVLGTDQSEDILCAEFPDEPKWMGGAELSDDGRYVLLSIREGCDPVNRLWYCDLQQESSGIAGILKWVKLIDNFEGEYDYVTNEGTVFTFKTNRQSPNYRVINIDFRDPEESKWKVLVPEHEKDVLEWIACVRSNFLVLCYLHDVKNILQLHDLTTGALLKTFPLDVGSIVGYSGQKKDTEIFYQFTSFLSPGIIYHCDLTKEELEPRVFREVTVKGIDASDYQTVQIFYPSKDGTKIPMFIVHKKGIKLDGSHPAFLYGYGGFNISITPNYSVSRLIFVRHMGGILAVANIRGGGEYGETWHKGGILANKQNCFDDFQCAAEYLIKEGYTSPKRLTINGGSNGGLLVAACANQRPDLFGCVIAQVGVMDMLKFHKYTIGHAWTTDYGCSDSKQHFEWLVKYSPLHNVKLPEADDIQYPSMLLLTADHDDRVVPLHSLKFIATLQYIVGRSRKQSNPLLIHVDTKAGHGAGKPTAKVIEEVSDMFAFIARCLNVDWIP
As to the kind of experiment: Biochemical human prolyl endopeptidase (PREP) assay with fluorescently labelled substrate. Conditions: substrate Z-Gly-Pro-AMC 50 μM, 32° C., 60 min; some as mean values from multiple independent determinations. The method, then:
B-1 Biochemical Human Prolyl Endopeptidase (PREP) Assay for Identification of Inhibitors of PREP Activity Using a Fluorescently Labelled Substrate Principle of the Assay:
The enzymatic conversion of the fluorescent peptide substrate was observed on the basis of the measurement of the fluorescence intensity. The enzyme activity was determined by the ascertaining of the initial slope in the increase in fluorescence. Compounds that inhibit PREP were identified on the basis of the decrease in the initial slope compared to a reaction mixture without test compound.
Determination of Activity:
IC50 values were determined by the plotting of the percentage PREP activity against the concentration of the test substance by interpolation.
To recombinant full-length human prolyl endopeptidase (PREP, R&D-Systems, 4308-SE; final concentration, for example, 0.4 nM, volume: 25 μl) in reaction buffer (50 mM Tris-HCl, pH 7.5; 150 mM NaCl; 0.13% BSA, 5 mM EDTA, 3 mM GSH, 0.005% Brij-35) was added a test compound (in DMSO, in an appropriate final concentration range from 1 nM to 30 μM, volume: 1 μl) in a well of a 384-well microtitre plate. The reaction was initiated by adding the substrate Z-Gly-Pro-AMC (final concentration 50 μM; Z=carboxybenzyl; AMC=7-amino-4-methylcoumarin, volume: 25 μl). The progress of the PREP reaction was observed by measuring the fluorescence intensity in a Tecan SAFIRE II plate spectrophotometer at 32° C. over a period of 60 min (excitation wavelength: 360 nm, emission wavelength: 465 nm).
Table B-1 below collates the IC50 values thus obtained from the human prolyl endopeptidase assay for individual working examples of the invention (some as mean values from multiple independent individual determinations).
One may read the IC50 as the concentration at which inhibition is half-maximal. On to `O=C(C1CCCc2nn(Cc3ccc4c(c3)CCC4)c(=O)n21)N1CCCC1` (racemic) [Example 11, (5RS)-2-(2,3-Dihydro-1H-inden-5-ylmethyl)-5-(pyrrolidin-1-ylcarbonyl)-5,6,7,8-tetrahydro[1,2,4]triazolo[4,3-a]pyridin-3(2H)-one], for which the IC50 came to 0.7 nM. In the case of `Cc1nc(Cn2nc3n(c2=O)C(C(=O)N2CCCC2)CCC3)no1` (racemic) [Example 12, (5RS)-2-[(5-Methyl-1,2,4-oxadiazol-3-yl)methyl]-5-(pyrrolidin-1-ylcarbonyl)-5,6,7,8-tetrahydro[1,2,4]triazolo[4,3-a]pyridin-3(2H)-one] it was 99.5 nM; in that of `Cc1cc(Cn2nc3n(c2=O)C(C(=O)N2CCCC2)CCC3)on1` (racemic) [Example 13, (5RS)-2-[(3-Methyl-1,2-oxazol-5-yl)methyl]-5-(pyrrolidin-1-ylcarbonyl)-5,6,7,8-tetrahydro[1,2,4]triazolo[4,3-a]pyridin-3(2H)-one], 5.4 nM.

For `O=C(C1CCCc2nn(Cc3ccc(C(F)(F)F)c(F)c3)c(=O)n21)N1CCCC1` (racemic) [Example 14], the IC50 was determined as 0.3 nM.

For the molecule `Cc1cc(Cn2nc3n(c2=O)C(C(=O)N2CCCC2)CCC3)ccn1` (racemic) [Example 15, (5RS)-2-[(2-Methylpyridin-4-yl)methyl]-5-(pyrrolidin-1-ylcarbonyl)-5,6,7,8-tetrahydro[1,2,4]triazolo[4,3-a]pyridin-3(2H)-one], the half-maximal inhibitory concentration (IC50) is 8.4 nM. In the case of `O=C(C1CCCc2nn(Cc3cccc(F)c3)c(=O)n21)N1CCCC1` (racemic) [Example 16, (5RS)-2-(3-Fluorobenzyl)-5-(pyrrolidin-1-ylcarbonyl)-5,6,7,8-tetrahydro[1,2,4]triazolo[4,3-a]pyridin-3(2H)-one] it was 2.2 nM. In the case of `O=C(C1CCCc2nn(Cc3ccc(F)c(F)c3)c(=O)n21)N1CCCC1` (racemic) [Example 17, (5RS)-2-(3,4-Difluorobenzyl)-5-(pyrrolidin-1-ylcarbonyl)-5,6,7,8-tetrahydro[1,2,4]triazolo[4,3-a]pyridin-3(2H)-one] it was 1.2 nM; in that of `O=C(C1CCCc2nn(Cc3ccc(F)c(Cl)c3)c(=O)n21)N1CCCC1` (racemic) [Example 18, (5RS)-2-(3-Chloro-4-fluorobenzyl)-5-(pyrrolidin-1-ylcarbonyl)-5,6,7,8-tetrahydro[1,2,4]triazolo[4,3-a]pyridin-3(2H)-one], 0.575 nM; in that of `O=C(C1CCCc2nn(Cc3cccc(C(F)(F)F)c3)c(=O)n21)N1CCCC1` (racemic) [Example 19, (5RS)-5-(Pyrrolidin-1-ylcarbonyl)-2-[3-(trifluoromethyl)benzyl]-5,6,7,8-tetrahydro[1,2,4]triazolo[4,3-a]pyridin-3(2H)-one], 0.57 nM.

`COc1cccc(Cn2nc3n(c2=O)C(C(=O)N2CCCC2)CCC3)c1` (racemic) [Example 20, (5RS)-2-(3-Methoxybenzyl)-5-(pyrrolidin-1-ylcarbonyl)-5,6,7,8-tetrahydro[1,2,4]triazolo[4,3-a]pyridin-3(2H)-one]: the concentration for half-maximal inhibition (IC50) came out at 1.5 nM. Next, `Cn1ccc(Cn2nc3n(c2=O)C(C(=O)N2CCCC2)CCC3)n1` (racemic) [Example 21, (5RS)-2-[(1-Methyl-1H-pyrazol-3-yl)methyl]-5-(pyrrolidin-1-ylcarbonyl)-5,6,7,8-tetrahydro[1,2,4]triazolo[4,3-a]pyridin-3(2H)-one]: 6.9 nM. Next, `O=C(C1CCCc2nn(Cc3ccccn3)c(=O)n21)N1CCCC1` (racemic) [Example 22, (5RS)-2-(Pyridin-2-ylmethyl)-5-(pyrrolidin-1-ylcarbonyl)-5,6,7,8-tetrahydro[1,2,4]triazolo[4,3-a]pyridin-3(2H)-one]: 42 nM.

`O=C(C1CCCc2nn(Cc3ccc(C(F)(F)F)cn3)c(=O)n21)N1CCCC1` (racemic) [Example 23, (5RS)-5-(Pyrrolidin-1-ylcarbonyl)-2-{[5-(trifluoromethyl)pyridin-2-yl]methyl}-5,6,7,8-tetrahydro[1,2,4]triazolo[4,3-a]pyridin-3(2H)-one]: the IC50 was 4.95 nM. Next, `Cc1[nH]cnc1Cn1nc2n(c1=O)C(C(=O)N1CCCC1)CCC2` (racemic) [Example 24, (5RS)-2-[(5-Methyl-1H-imidazol-4-yl)methyl]-5-(pyrrolidin-1-ylcarbonyl)-5,6,7,8-tetrahydro[1,2,4]triazolo[4,3-a]pyridin-3(2H)-one]: 4.9 nM.

Turning to `Cc1ccc(Cn2nc3n(c2=O)C(C(=O)N2CCCC2)CCC3)cc1` (racemic) [Example 25, (5RS)-2-(4-Methylbenzyl)-5-(pyrrolidin-1-ylcarbonyl)-5,6,7,8-tetrahydro[1,2,4]triazolo[4,3-a]pyridin-3(2H)-one], the IC50 was 0.76 nM. Next, `O=C(C1CCCc2nn(Cc3ccc(Cl)cc3)c(=O)n21)N1CCCC1` (racemic) [Example 27, (5RS)-2-(4-Chlorobenzyl)-5-(pyrrolidin-1-ylcarbonyl)-5,6,7,8-tetrahydro[1,2,4]triazolo[4,3-a]pyridin-3(2H)-one]: 1.28 nM. For `CC(C)(C)OC(=O)c1ccc(Cn2nc3n(c2=O)C(C(=O)N2CCCC2)CCC3)cc1` (racemic) [Example 28, tert-Butyl 4-{[(5RS)-3-oxo-5-(pyrrolidin-1-ylcarbonyl)-5,6,7,8-tetrahydro[1,2,4]triazolo[4,3-a]pyridin-2(3H)-yl]methyl}benzoate], the IC50 is 24 nM. Next, `NS(=O)(=O)c1ccc(Cn2nc3n(c2=O)C(C(=O)N2CCCC2)CCC3)cc1` (racemic) [Example 29, 4-{[(5RS)-3-Oxo-5-(pyrrolidin-1-ylcarbonyl)-5,6,7,8-tetrahydro[1,2,4]triazolo[4,3-a]pyridin-2(3H)-yl]methyl}benzenesulphonamide]: 1.2 nM; `CSc1ccc(Cn2nc3n(c2=O)C(C(=O)N2CCCC2)CCC3)cc1` (racemic) [Example 30, (5RS)-2-[4-(Methylsulphanyl)benzyl]-5-(pyrrolidin-1-ylcarbonyl)-5,6,7,8-tetrahydro[1,2,4]triazolo[4,3-a]pyridin-3(2H)-one]: 1.6 nM.

On to `O=C(C1CCCc2nn(Cc3ccc(Cl)nc3)c(=O)n21)N1CCCC1` (racemic) [Example 31, (5RS)-2-[(6-Chloropyridin-3-yl)methyl]-5-(pyrrolidin-1-ylcarbonyl)-5,6,7,8-tetrahydro[1,2,4]triazolo[4,3-a]pyridin-3(2H)-one], for which the IC50 was 2.9 nM.

Consider `O=C(C1CCCc2nn(Cc3ccc(Cl)cn3)c(=O)n21)N1CCCC1` (racemic) [Example 33, (5RS)-2-[(5-Chloropyridin-2-yl)methyl]-5-(pyrrolidin-1-ylcarbonyl)-5,6,7,8-tetrahydro[1,2,4]triazolo[4,3-a]pyridin-3(2H)-one], for which the IC50 is 7.7 nM.

On to `N#Cc1ccc(Cn2nc3n(c2=O)C(C(=O)N2CCCC2)CCC3)cn1` (racemic) [Example 35, 5-{[(5RS)-3-Oxo-5-(pyrrolidin-1-ylcarbonyl)-5,6,7,8-tetrahydro[1,2,4]triazolo[4,3-a]pyridin-2(3H)-yl]methyl}pyridine-2-carbonitrile], for which the half-inhibitory concentration (IC50) came out at 15 nM. Next, `COc1ccc(Cn2nc3n(c2=O)C(C(=O)N2CCCC2)CCC3)cc1` (racemic) [Example 36, (5RS)-2-(4-Methoxybenzyl)-5-(pyrrolidin-1-ylcarbonyl)-5,6,7,8-tetrahydro[1,2,4]triazolo[4,3-a]pyridin-3(2H)-one]: 3.65 nM. Next, `O=C(C1CCCc2nn(Cc3ccc(Cl)c(C(F)(F)F)c3)c(=O)n21)N1CCCC1` (racemic) [Example 37]: 0.83 nM; `O=C(C1CCCc2nn(Cc3cccc(Cl)c3)c(=O)n21)N1CCCC1` (racemic) [Example 38, (5RS)-2-(3-Chlorobenzyl)-5-(pyrrolidin-1-ylcarbonyl)-5,6,7,8-tetrahydro[1,2,4]triazolo[4,3-a]pyridin-3(2H)-one]: 1 nM.
